Assay results reported in patent US20220041583A1, “IMMUNOMODULATORS, COMPOSITIONS AND METHODS THERE OF” (BETTA PHARMACEUTICALS CO., LTD, priority 2018, published 2022).
Structures can show the parent of a compound that is named as a salt.

Target: T1, PD-1/PD-L1 (Homo sapiens, UniProt Q9NZQ7)
T1 construct: Recombinant human PD-L1 protein (19-238) with a His-tag at the C-terminus; purchased AcroBiosystems PD1-H5229 (PD-L1); PD1-H5257 (PD-1)
Experiment: PD-1/PD-L1 homogenous time-resolved fluorescence (HTRF) binding assay
Procedure: Resolved Fluorescence (HTRF) Binding Assay
The assays were conducted in a standard black 384-well polystyrene plate with a final volume of 20 μL. Inhibitors were first serially diluted in DMSO and then added to the plate wells before the addition of other reaction components. The final concentration of DMSO in the assay was 1%. The assays were carried out at 25° C. in the PBS buffer (pH 7.4) with 0.05% Tween-20 and 0.1% BSA. Recombinant human PD-L1 protein (19-238) with a His-tag at the C-terminus was purchased from AcroBiosy stems (PD1-H5229). Recombinant human PD-1 protein (25-167) with Fc tag at the C-terminus was also purchased from AcroBiosystems (PD1-H5257). PD-L1 and PD-1 proteins were diluted in the assay buffer and 10 μL was added to the plate well. Plates were centrifuged and proteins were preincubated with inhibitors for 40 min. The incubation was followed by the addition of 10 μL of HTRF detection buffer supplemented with Europium cryptate-labeled anti-human IgG (PerkinElmer-AD0212) specific for Fc and anti-His antibody conjugated to SureLight®-Allophycocyanin (APC, PerkinElmer-AD0059H). After centrifugation, the plate was incubated at 25° C. for 60 min. Before reading on a PHERAstar FS plate reader (665 nm/620 nm ratio). Final concentrations in the assay were […] PD1, 10 nM PD-L1, 1 nM europium anti-human IgG and 20 nM anti-His-Allophycocyanin. IC50 determination was performed by fitting the curve of percent control activity versus the log of the inhibitor concentration using the GraphPad Prism 5.0 software.

T1 sequence (Q9NZQ7 19-238): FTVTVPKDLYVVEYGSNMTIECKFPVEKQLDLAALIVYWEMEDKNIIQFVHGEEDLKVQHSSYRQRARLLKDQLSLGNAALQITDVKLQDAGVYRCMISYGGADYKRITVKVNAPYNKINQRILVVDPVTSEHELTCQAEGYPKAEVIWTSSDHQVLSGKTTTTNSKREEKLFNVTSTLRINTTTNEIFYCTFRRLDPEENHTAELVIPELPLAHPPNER

| IC50 (Table 6, class symbols) | IC50 (Table 6, numeric values) | SMILES |
| --- | --- | --- |
| 0.1 to 10 nM | – | CC[C@H](NCc1cc2nc(-c3cccc(-c4ccccc4)c3C)oc2cc1SC)C(=O)O [Example 10, (S)-2-(((2-(2-methyl-[1,1′-biphenyl]-3-yl)-6-(methylthio)benzo[d]oxazol-5-yl)methyl)amino)butanoic acid] |
| 10 to 100 nM | – | CSc1cc2oc(-c3cccc(-c4ccccc4)c3C)nc2cc1CN[C@H](C)C(=O)O [Example 6, ((2-(2-methyl-[1,1′-biphenyl]-3-yl)-6-(methylthio)benzo[d]oxazol-5-yl)methyl)-D-alanine] |
| 0.1 to 10 nM | – | CSc1cc2oc(-c3cccc(-c4ccccc4)c3C)nc2cc1CN1CCC[C@@H]1C(=O)O [Example 7, ((2-(2-methyl-[1,1′-biphenyl]-3-yl)-6-(methylthio)benzo[d]oxazol-5-yl)methyl)-D-proline] |
| – | 3.4 nM | Cc1c(-c2ccccc2)cccc1-c1nc2cc(CN[C@H](CO)C(=O)O)c(OC(F)F)cc2o1 [Example 42, ((6-(difluoromethoxy)-2-(2-methyl-[1,1′-biphenyl]-3-yl)benzo[d]oxazol-5-yl)methyl)-D-serine] |
| 10 to 100 nM | – | CC[C@@H](NCc1cc2nc(-c3cccc(-c4ccccc4)c3C)oc2cc1SC)C(=O)O [Example 11, (R)-2-(((2-(2-methyl-[1,1′-biphenyl]-3-yl)-6-(methylthio)benzo[d]oxazol-5-yl)methyl)amino)butanoic acid] |
| 0.1 to 10 nM | – | Cc1c(-c2ccccc2)cccc1-c1nc2cc(CN[C@@H](C)C(=O)O)c(OC(F)F)cc2o1 [Example 33, ((6-(difluoromethoxy)-2-(2-methyl-[1,1′-biphenyl]-3-yl)benzo[d]oxazol-5-yl)methyl)-L-alanine] |
| 0.1 to 10 nM | – | CSc1cc2oc(-c3cccc(-c4ccccc4)c3C)nc2cc1CN[C@@H](CO)C(=O)O [Example 13, ((2-(2-methyl-[1,1′-biphenyl]-3-yl)-6-(methylthio)benzo[d]oxazol-5-yl)methyl)-L-serine] |
| 0.1 to 10 nM | – | CSc1cc2oc(-c3cccc(-c4ccccc4)c3C)nc2cc1CN[C@@H](C)C(=O)O [Example 5, ((2-(2-methyl-[1,1′-biphenyl]-3-yl)-6-(methylthio)benzo[d]oxazol-5-yl)methyl)-L-alanine] |
| 10 to 100 nM | – | CSc1cc2oc(-c3cccc(-c4ccccc4)c3C)nc2cc1CN[C@@H](C(=O)O)[C@@H](C)O [Example 3, ((2-(2-methyl-[1,1′-biphenyl]-3-yl)-6-(methylthio)benzo[d]oxazol-5-yl)methyl)-D-allothreonine] |
| – | 3.2 nM | Cc1c(-c2ccccc2)cccc1-c1nc2cc(CN[C@H](C(=O)O)[C@H](C)O)c(OC(F)F)cc2o1 [Example 31, ((6-(difluoromethoxy)-2-(2-methyl-[1,1′-biphenyl]-3-yl)benzo[d]oxazol-5-yl)methyl)-L-allothreonine] |
| 10 to 100 nM | – | Cc1c(-c2ccccc2)cccc1-c1nc2cc(CN[C@H](C)C(=O)O)c(OC(F)F)cc2o1 [Example 34, ((6-(difluoromethoxy)-2-(2-methyl-[1,1′-biphenyl]-3-yl)benzo[d]oxazol-5-yl)methyl)-D-alanine] |

Second part, the molecule before the results:

| SMILES | IC50 (Table 6, class symbols) | IC50 (Table 6, numeric values) |
| --- | --- | --- |
| N#Cc1c(-c2ccccc2)cccc1-c1nc2cc(CN3CCC[C@H]3C(=O)O)c(OC(F)F)cc2o1 [Example 44, ((2-(2-cyano-[1,1′-biphenyl]-3-yl)-6-(difluoromethoxy)benzo[d]oxazol-5-yl)methyl)-L-proline] | 0.1 to 10 nM | – |
| CSc1cc2oc(-c3cccc(-c4ccccc4)c3C)nc2cc1CN1CCCCC1CO (stereo not shown) [Example 8, (1-((2-(2-methyl-[1,1′-biphenyl]-3-yl)-6-(methylthio)benzo[d]oxazol-5-yl)methyl)piperidin-2-yl)methanol] | 10 to 100 nM | – |
| CNc1cc2oc(-c3cccc(-c4ccccc4)c3C)nc2cc1CN1CCCCC1C(=O)O (stereo not shown) [Example 27, 1-((2-(2-methyl-[1,1′-biphenyl]-3-yl)-6-(methylamino)benzo[d]oxazol-5-yl)methyl)piperidine-2-carboxylic acid] | 0.1 to 10 nM | – |
| Cc1c(-c2ccccc2)cccc1-c1nc2cc(CN3CCC[C@H]3C(=O)O)c(OCC(F)(F)F)cc2o1 [Example 60, ((2-(2-methyl-[1,1′-biphenyl]-3-yl)-6-(2,2,2-trifluoroethoxy)benzo[d]oxazol-5-yl)methyl)-L-proline] | 10 to 100 nM | – |
| Cc1c(-c2ccccc2)cccc1-c1nc2cc(CN3CCCC3(C)C(=O)O)c(OC(F)F)cc2o1 (stereo not shown) [Example 46, 1-((6-(difluoromethoxy)-2-(2-methyl-[1,1′-biphenyl]-3-yl)benzo[d]oxazol-5-yl)methyl)-2-methylpyrrolidine-2-carboxylic acid] | 0.1 to 10 nM | – |
| Cc1c(-c2ccccc2)cccc1-c1nc2cc(CN[C@@H](C)C(=O)O)c(OCC(F)(F)F)cc2o1 [Example 59, ((2-(2-methyl-[1,1′-biphenyl]-3-yl)-6-(2,2,2-trifluoroethoxy)benzo[d]oxazol-5-yl)methyl)-L-alanine] | 10 to 100 nM | – |
| Cc1c(-c2ccccc2)cccc1-c1nc2cc(CN3CCCCC3C(=O)O)c3c(c2o1)C(=O)CO3 (stereo not shown) [Example 73, 1-((2-(2-methyl-[1,1′-biphenyl]-3-yl)-8-oxo-7,8-dihydrobenzofuro[5,4-d]oxazol-5-yl)methyl)piperidine-2-carboxylic acid] | 100 to 1000 nM | – |
| Cc1c(-c2ccccc2)cccc1-c1nc2cc(CN3CCCC[C@H]3C(=O)O)c(OCC(F)(F)F)cc2o1 [Example 54, (S)-1-((2-(2-methyl-[1,1′-biphenyl]-3-yl)-6-(2,2,2-trifluoroethoxy)benzo[d]oxazol-5-yl)methyl)piperidine-2-carboxylic acid] | 10 to 100 nM | – |
| Cc1c(-c2ccccc2)cccc1-c1nc2cc(CN[C@@H](C(=O)O)[C@@H](C)O)c(OC(F)F)cc2o1 [Example 30, ((6-(difluoromethoxy)-2-(2-methyl-[1,1′-biphenyl]-3-yl)benzo[d]oxazol-5-yl)methyl)-D-allothreonine] | – | 4.8 nM |
| Cc1c(-c2ccccc2)cccc1-c1nc2cc(CN3CCCCC3C(=O)O)c3c(c2o1)C(=O)CO3 (stereo not shown) [Example 68, 1-((2-(2-methyl-[1,1′-biphenyl]-3-yl)-8-oxo-7,8-dihydrobenzofuro[5,4-d]oxazol-5-yl)methyl)piperidine-2-carboxylic acid] | 100 to 1000 nM | – |
| Cc1c(-c2ccccc2)cccc1-c1nc2cc(CN[C@@H](Cc3ccc(O)cc3)C(=O)O)c(OC(F)F)cc2o1 [Example 32, ((6-(difluoromethoxy)-2-(2-methyl-[1,1′-biphenyl]-3-yl)benzo[d]oxazol-5-yl)methyl)-L-tyrosine hydrochloride] | 0.1 to 10 nM | – |
| Cc1c(-c2ccccc2)cccc1-c1nc2cc(CN3CCC[C@H]3C(=O)O)c(O)cc2o1 [Example 21, ((6-hydroxy-2-(2-methyl-[1,1′-biphenyl]-3-yl)benzo[d]oxazol-5-yl)methyl)-L-proline] | 10 to 100 nM | – |
| Cc1c(-c2ccccc2)cccc1-c1nc2cc(CN3CCC[C@H]3C(=O)O)c([S+](C)[O-])cc2o1 (stereo partly drawn) [Example 65, ((2-(2-methyl-[1,1′-biphenyl]-3-yl)-6-(methylsulfinyl)benzo[d]oxazol-5-yl)methyl)-L-proline] | – | 5 nM |
| CSc1cc2oc(-c3cccc(-c4ccccc4)c3C)nc2cc1CN1CCOC[C@H]1C(=O)O [Example 9, (S)-4-((2-(2-methyl-[1,1′-biphenyl]-3-yl)-6-(methylthio)benzo[d]oxazol-5-yl)methyl)morpholine-3-carboxylic acid] | 0.1 to 10 nM | – |
| Cc1c(-c2ccccc2)cccc1-c1nc2cc(CN3COC[C@H]3C(=O)O)c(OC(F)F)cc2o1 [Example 53, (S)-3-((6-(difluoromethoxy)-2-(2-methyl-[1,1′-biphenyl]-3-yl)benzo[d]oxazol-5-yl)methyl)oxazolidine-4-carboxylic acid] | 10 to 100 nM | – |
| Cc1c(-c2ccccc2)cccc1-c1nc2cc(CN3CCCC3(C)C(=O)O)c(OCC(F)(F)F)cc2o1 (stereo not shown) [Example 61, 2-methyl-1-((2-(2-methyl-[1,1′-biphenyl]-3-yl)-6-(2,2,2-trifluoroethoxy)benzo[d]oxazol-5-yl)methyl)pyrrolidine-2-carboxylic acid] | 10 to 100 nM | – |
| Cc1c(-c2ccc3c(c2)OCCO3)cccc1-c1nc2cc(CN3CCC[C@H]3C(=O)O)c(OC(F)F)cc2o1 [Example 47, ((6-(difluoromethoxy)-2-(3-(2,3-dihydrobenzo[b][1,4]dioxin-6-yl)-2-methylphenyl)benzo[d]oxazol-5-yl)methyl)-L-proline] | 0.1 to 10 nM | – |
| Cc1c(-c2ccccc2)cccc1-c1nc2cc(CN3CCC[C@H]3C(=O)O)c(S(C)(=O)=O)cc2o1 [Example 66, ((2-(2-methyl-[1,1′-biphenyl]-3-yl)-6-(methylsulfonyl)benzo[d]oxazol-5-yl)methyl)-L-proline] | 0.1 to 10 nM | – |
| N#Cc1c(-c2ccccc2)cccc1-c1nc2cc(CN3CCOC[C@H]3C(=O)O)c(OCC(F)(F)F)cc2o1 [Example 57, (S)-4-((2-(2-cyano-[1,1′-biphenyl]-3-yl)-6-(2,2,2-trifluoroethoxy)benzo[d]oxazol-5-yl)methyl)morpholine-3-carboxylic acid] | 10 to 100 nM | – |
| Cc1c(-c2ccccc2)cccc1-c1nc2cc3c(cc2o1)OC[C@H](C(=O)O)NC3 [Example 72, (R)-2-(2-methyl-[1,1′-biphenyl]-3-yl)-6,7,8,9-tetrahydrooxazolo[5′,4′:4,5]benzo[1,2-f][1,4]oxazepine-7-carboxylic acid] | 100 to 1000 nM | – |
